According to ChEMBL document CHEMBL3045803, “Preparation and root growth-inhibitory activity of N-substituted 2-(2-chloroacetamido)-3-(furan-2-yl)propanamides” (2005):

Tested on: Brassica rapa subsp. oleifera
Assay: Inhibition of Brassica rapa subsp. oleifera root growth assessed as reduction of root length at 5 x 10^-5 M after 7 days by germination assay relative to control
Format: functional
Conditions: 168 h

Row | Compound | inhibition at 50 µM
1 | Cc1cnc(NC(=O)C(Cc2ccco2)NC(=O)CCl)s1 (centres undefined) | 20%
2 | O=C(CCl)NC(Cc1ccco1)C(=O)Nc1nc2ccccc2s1 (centres undefined) | 58%
3 | O=C(CCl)NC(Cc1ccco1)C(=O)Nc1nc2c(Cl)cccc2s1 (centres undefined) | 42%
4 | CCOc1ccc2nc(NC(=O)C(Cc3ccco3)NC(=O)CCl)sc2c1 (centres undefined) | 34%
5 | O=C(CCl)NC(Cc1ccco1)C(=O)Nc1ccccc1 (centres undefined) | 52%
6 | O=C(CCl)NC(Cc1ccco1)C(=O)Nc1cccc(F)c1 (centres undefined) | 33%
7 | O=C(CCl)NC(Cc1ccco1)C(=O)Nc1ccc(F)cc1 (centres undefined) | 37%
8 | O=C(CCl)NC(Cc1ccco1)C(=O)Nc1cccc(Cl)c1 (centres undefined) | 30%
9 | O=C(CCl)NC(Cc1ccco1)C(=O)Nc1ccc(Cl)cc1 (centres undefined) | 19%
10 | O=C(CCl)NC(Cc1ccco1)C(=O)Nc1cccc(Br)c1 (centres undefined) | 42%
11 | O=C(CCl)NC(Cc1ccco1)C(=O)Nc1ccc(Br)cc1 (centres undefined) | 29%
12 | CCc1ccccc1NC(=O)C(Cc1ccco1)NC(=O)CCl (centres undefined) | 20%
13 | CCc1cccc(NC(=O)C(Cc2ccco2)NC(=O)CCl)c1 (centres undefined) | 35%
14 | CCc1ccc(NC(=O)C(Cc2ccco2)NC(=O)CCl)cc1 (centres undefined) | 41%
15 | CCc1cccc(CC)c1NC(=O)C(Cc1ccco1)NC(=O)CCl (centres undefined) | 76%
16 | CCc1cccc(C)c1NC(=O)C(Cc1ccco1)NC(=O)CCl (centres undefined) | 67%
17 | Cc1cccc(C)c1NC(=O)C(Cc1ccco1)NC(=O)CCl (centres undefined) | 62%
18 | O=C(CCl)NC(Cc1ccco1)C(=O)Nc1nccs1 (centres undefined) | 57%
19 | O=C(CCl)NC(Cc1ccco1)C(=O)Nc1ncc(Br)s1 (centres undefined) | 69%
20 | O=C(CCl)NC(Cc1ccco1)C(=O)Nc1ncc([N+](=O)[O-])s1 (centres undefined) | 37%
21 | Cc1csc(NC(=O)C(Cc2ccco2)NC(=O)CCl)n1 (centres undefined) | 56%
22 | Cc1nc(NC(=O)C(Cc2ccco2)NC(=O)CCl)sc1C (centres undefined) | 25%
23 | O=C(CCl)NC(Cc1ccco1)C(=O)Nc1nc(-c2ccc(Cl)cc2)cs1 (centres undefined) | 52%
24 | O=C(O)COc1ccc(Cl)cc1Cl [2,4-DICHLOROPHENOXYACETIC ACID] | 97%
